ChEMBL document CHEMBL6177980 (J Med Chem, 2025)
Activity calls are given as the source filed them. The rule behind the calls is not given here.

Legend:
[1] = system: Mammarenavirus choriomeningitidis; assay: In vivo antiviral activity against LCMV infected in C57BL/6-Prf1tm1Sdz/J mouse assessed as improvement in body weight loss at 1 to 5 mg/kg, po qd treated for 7 days; type: functional, organism-based; settings: dose 1-5 mg/kg, time 7.0 day
[2] = system: Mammarenavirus choriomeningitidis; assay: In vivo antiviral activity against LCMV infected in C57BL/6-Prf1tm1Sdz/J mouse assessed as improvement in platelet count at 1 to 5 mg/kg, po qd treated for 7 days; type: functional, organism-based; settings: dose 1-5 mg/kg, time 7.0 day
[3] = system: Mammarenavirus choriomeningitidis; assay: Antiviral activity against LCMV infected in C57BL/6-Prf1tm1Sdz/J mouse assessed as reduction in viral copy number in kidney treated orally once daily for 7 days by RT-qPCR analysis; type: functional, organism-based; settings: dose 1-5 mg/kg, route po, time 7.0 day
[4] = Prodrug conversion in C57BL/6J mouse assessed as Cmax of 4'-Fluorouridine metabolite at 2 mg/kg, po by LC-MS/MS analysis; type: ADME, organism-based; settings: in vivo
[5] = system: Mammarenavirus choriomeningitidis; assay: Antiviral activity against LCMV infected in C57BL/6-Prf1tm1Sdz/J mouse assessed as reduction in viral copy number in spleen treated orally once daily for 7 days by RT-qPCR analysis; type: functional, organism-based; settings: dose 1-5 mg/kg, route po, time 7.0 day
[6] = Prodrug conversion in Beagle dog assessed as AUC (0 to t) of 4'-Fluorouridine metabolite at 1 mg/kg, iv by LC-MS/MS analysis; type: ADME, organism-based, Canis lupus familiaris; settings: in vivo
[7] = Oral bioavailability in fasted Cynomolgus monkey administered orally by LC-MS/MS analysis; type: ADME, organism-based, Macaca fascicularis; settings: in vivo
[8] = Prodrug conversion in Beagle dog assessed as AUC (0 to t) of 4'-Fluorouridine metabolite at 1 mg/kg, po by LC-MS/MS analysis; type: ADME, organism-based, Canis lupus familiaris; settings: in vivo
[9] = Stability in Beagle dog plasma administered orally or intravenously; type: ADME, cell-free, Canis lupus familiaris; settings: po
[10] = Prodrug conversion in Beagle dog liver microsomes assessed as parent nucleoside metabolite formation at 1 uM measured up to 60 mins in presence of NADPH/UDPGA by LC-MS/MS analysis; type: ADME, Canis lupus familiaris, Microsome; settings: 1 h
[11] = Prodrug conversion in Beagle dog assessed as AUC (0 to t) of 4'-Fluorouridine metabolite at 3 mg/kg, po by LC-MS/MS analysis; type: ADME, organism-based, Canis lupus familiaris; settings: in vivo
[12] = Prodrug conversion in C57BL/6J mouse assessed as Cmax of 4'-Fluorouridine metabolite at 6 mg/kg, po by LC-MS/MS analysis; type: ADME, organism-based; settings: in vivo
[13] = Prodrug conversion in Sprague-Dawley rat assessed as AUC (0 to t) of 4'-Fluorouridine metabolite at 2 mg/kg, iv by LC-MS/MS analysis; type: ADME, organism-based; settings: in vivo
[14] = Prodrug conversion in Beagle dog assessed as AUC (0 to t) of 4'-Fluorouridine metabolite at 3 mg/kg/day, po treated for 7 days by LC-MS/MS analysis; type: ADME, organism-based, Canis lupus familiaris; settings: in vivo, 168 h, time 7 day
[15] = Prodrug conversion in Beagle dog assessed as volume of distribution at steady state of 4'-Fluorouridine metabolite treated orally or intravenously by LC-MS/MS analysis; type: ADME, Canis lupus familiaris; settings: in vivo, po
[16] = Prodrug conversion in C57BL/6J mouse assessed as Cmax of 4'-Fluorouridine metabolite at 20 mg/kg, po by LC-MS/MS analysis; type: ADME, organism-based; settings: in vivo
[17] = Prodrug conversion in Sprague-Dawley rat plasma assessed as parent nucleoside metabolite formation administered orally or intravenously; type: ADME, cell-free; settings: po
[18] = Stability in Sprague-Dawley rat plasma administered orally or intravenously; type: ADME, cell-free; settings: po
[19] = system: Mammarenavirus choriomeningitidis; assay: Antiviral activity against LCMV infected in C57BL/6-Prf1tm1Sdz/J mouse assessed as reduction in viral titer in lung treated orally once daily for 7 days by RT-qPCR analysis; type: functional, organism-based; settings: dose 1-5 mg/kg, route po, time 7.0 day
[20] = AUC (0 to t) in fasted Sprague-Dawley rat at 23 mg/kg, po by LC-MS/MS analysis; type: ADME, organism-based; settings: in vivo
[21] = AUC (0 to t) in fasted Cynomolgus monkey at 11.6 mg/kg, po by LC-MS/MS analysis; type: ADME, organism-based, Macaca fascicularis; settings: in vivo
[22] = Prodrug conversion in Sprague-Dawley rat assessed as 4'-Fluorouridine metabolite formation in lung at 6 mg/kg, po measured for 0.5 to 24 hrs by LC-MS/MS analysis; type: ADME, organism-based; settings: in vivo, time 0.5-24 hrs
[23] = system: Mammarenavirus choriomeningitidis; assay: Antiviral activity against LCMV infected in C57BL/6-Prf1tm1Sdz/J mouse assessed as reduction in viral copy number in liver treated orally once daily for 7 days by RT-qPCR analysis; type: functional, organism-based; settings: dose 1-5 mg/kg, route po, time 7.0 day

With `CC(C)C(=O)OC[C@@]1(F)O[C@@H](n2ccc(=O)n(COC(=O)c3cccnc3)c2=O)[C@H](OC(=O)C(C)C)[C@@H]1OC(=O)C(C)C` the Activity [1] was “Active”, the Activity [2] was “Active” and the Activity [3] was “Dose-dependent-effect”. The Cmax [4] was 57 ng/mL, the Activity [5] was “Dose-dependent-effect” and the AUCt [6] was 282 ng·h/mL. For the same compound, the bioavailability [7] was 75.2%, the AUCt [8] was 257 ng·h/mL and the Stability [9] was “Unstable”. The Drug metabolism [10] was “metabolite_detected”, the AUCt [11] was 903 ng·h/mL and the Cmax [12] was 266 ng/mL. It also gave an AUCt [13] of 1056 ng·h/mL, an AUCt [14] of 1249 ng·h/mL and a Vdss [15] of 3.07 L/kg. The Cmax [16] was 788 ng/mL, the Drug metabolism [17] was “metabolite_detected” and the Stability [18] was “Unstable”. The Activity [19] was “Dose-dependent-effect”, the AUC(0-t) [20] was 11800 ng·h/mL and the AUC(0-t) [21] was 15100 ng·h/mL. The Drug metabolism [22] was “metabolite_detected” and the Activity [23] was “Dose-dependent-effect”.
